From patent US6555550B1, “Musarinic agonists and antagonists” (UCB, S. A.,, priority 1998, dated 2003)

How the values were obtained:
cloned human M4 mAChRs = molecular target: T1, cloned human M4 mAChRs (Homo sapiens, UniProt P08173); assay: Binding to cloned human M4 mAChRs expressed in CHO-Kl cells; details: 2.5 nM 3H-oxotremorine M, CHO-Kl M4 membranes, pH 7
T1 construct: expressed in transfected cells; host or cells: CHO-K1 cells (membrane preparation)
T1 sequence (P08173 1-479): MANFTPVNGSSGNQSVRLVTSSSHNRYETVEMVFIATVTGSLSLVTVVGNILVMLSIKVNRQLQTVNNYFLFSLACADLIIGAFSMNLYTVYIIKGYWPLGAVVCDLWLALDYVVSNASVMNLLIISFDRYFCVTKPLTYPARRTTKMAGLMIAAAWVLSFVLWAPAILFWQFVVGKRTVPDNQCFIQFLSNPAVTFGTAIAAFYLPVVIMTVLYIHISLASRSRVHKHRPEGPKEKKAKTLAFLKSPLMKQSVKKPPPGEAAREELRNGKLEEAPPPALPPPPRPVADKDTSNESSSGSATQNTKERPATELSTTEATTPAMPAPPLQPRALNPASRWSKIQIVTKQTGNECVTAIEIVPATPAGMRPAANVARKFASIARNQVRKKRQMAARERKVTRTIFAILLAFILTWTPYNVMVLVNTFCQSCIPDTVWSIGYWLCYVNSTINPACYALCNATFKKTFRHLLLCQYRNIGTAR
Description: Binding to Cloned Human M4 […] Expressed in CHO-Kl Cells
The following protocol was used to detect binding to cloned human M4 mAChRs expressed in CHO-Kl cells.
A membrane preparation was made from CHO-Kl cells expressing human M4 mAChRs. Aliquots of membrane were stored at −70° C. until thawed on the day of assay. For each assay, CHO-Kl M4 membrane preparation (approximately 20 μg of protein) was incubated with test compound and 2.5 nM ^3H-oxotremorine M (DuPont, NEN) in 20 mM HEPES buffer, pH 7 in an assay volume of 200 μl. Assays were incubated in 96-well polypropylene plates for 40 minutes at room temperature. Nonspecific binding was determined in samples incubated in parallel in the presence of 10 μM atropine (Sigma) instead of test compound. The incubations were terminated by rapid vacuum filtration using a Packard plate harvester through 96-well Whatman GF/B filter plates presoaked in 0.5% polyethylenimine. The filter plate was washed rapidly four times with 0.2 ml aliquots of water. The plate was dried by placing under a heat lamp for 5 minutes. The plate was counted using a Packard scintillation counter after addition of 35 μl Microscint 20 scintillation fluid. Data were analyzed by nonlinear regression analysis.
Results from this assay are used to show the ability of compounds of this invention to bind to the agonist binding site of the muscarinic M4 receptor. Compounds which bind to this site have specific utility in the treatment of pain, schizophrenic disorders and cognitive disorders such as AD.

Female CD-1 mice [1] = assay: Tail-flick assay; assay type: in vivo; details: injection, % MPE, 10-second cut-off; for ED50: Mus musculus
Excerpt: The tail flick assay is a commonly used animal model of analgesia. It is a stringent enough assay such that opiates (e.g., morphine) show activity in this model, whereas the non-steroidal antiinflammatories (NSAD's) such as ibuprofen are ineffective. As such, it is a useful assay system for investigating the utility of novel compounds for the treatment of severe and chronic pain.
Female CD-1 mice, weighing 20-30 grams were obtained from Charles River laboratories (Wilmington, Mass., USA). A commercially available tail-flick analgesia meter was used (Model TF-6 Analgesia Meter, Emdie Instrument Co., Maidens, Va.). […] A 10-second cut-off time was used as the maximum latency to avoid damage to the mice tails. The latency of each mouse (a mean of two separate test results for each time-point), was obtained at 0 (immediately prior to dosing), 5, 15, 30, and 60 min. time-points after injection of compounds and the % Maximum Possible Effect (% MPE) was calculated by using the formula, % MPE=[(postdrug latency−predrug latency)÷(cutoff time−predrug latency)]×100.

Female CD-1 mice [2] = assay: Sedation by visual inspection; assay type: in vivo; details: at tail-flick ED50 dose
Excerpt: Sedation was noted by close visual inspection of the animal.

Female CD-1 mice [3] = assay: Body temperature (rectal probe); assay type: in vivo; details: at tail-flick ED50 dose; core temperature
Description: At ambient temperature, a temperature probe (type T Thermocouple Thermometer, BAT-10; Physitemp Inc., Clifton, N.J.) was inserted 1.0 cm into the rectum of mice to measure their core temperature and recorded at 0 (before drug as a control baseline), 10, 25 and 55 min after injection of compounds.

SMILES	Human M4 in CHO-K1 Assay (cloned human M4 mAChRs) [nM]	ED50 (Female CD-1 mice [1]) [mg/kg]	Side Effect Profile at ED50 Dose: Sedation (Female CD-1 mice [2])	Side Effect Profile at ED50 Dose: Hypothermia (Female CD-1 mice [3]) [°C]	Tail-Flick ED50 (Female CD-1 mice [1]) [mg/kg]
Clc1nsnc1C1C2CC3CC1CN(C3)C2 (stereo not shown) [Cmpd 7, 3-(5-Azatricyclo[3.3.1.1<3,7>]dec-2-yl)-4-chloro-1,2,5-thiadiazole]	>88				
CCCOc1nsnc1C1C2CC3CC1CN(C3)C2 (stereo not shown) [Cmpd 12, 3-(5-azatricyclo[3.3.1.1<3,7>]dec-2-yl)-4-propoxy-1,2,5-thiadiazole]	0.74	4.5	Slight	1.0	
CCCCOc1nsnc1C1C2CC3CC1CN(C3)C2 (stereo not shown) [Cmpd 13, 3-(5-azatricyclo[3.3.1.1<3,7>]dec-2-yl)-4-butoxy-1,2,5-thiadiazole]	10				
CCCCOc1nsnc1C1C2CC3CC1CN(C3)C2 (stereo not shown) [Cmpd 14, 3-(5-azatricyclo[3.3.1.1<3,7>]dec-2-yl)-4-butoxy-1,2,5-thiadiazole]	3.8	> 10	Slight	2.0	
C1CC1COc1nsnc1C1C2CC3CC1CN(C3)C2 (stereo not shown) [Cmpd 16, 3-(5-azatricyclo[3.3.1.1<3,7>]dec-2-yl)-4-(cyclopropylmethoxy)1,2,5-thiadiazole]	<1.4	1.4	Sedation	1.5	
CC(C)COc1nsnc1C1C2CC3CC1CN(C3)C2 (stereo not shown) [Cmpd 18, 3-(5-azatricyclo[3.3.1.1<3,7>]dec-2-yl)-4-(2-methyl-propoxy)-1,2,5-thiadiazole]		> 5	No sedation	0	
COc1nsnc1C1C2CC3CC1CN(C3)C2 (stereo not shown) [Cmpd 21, 3-(5-azatricyclo[3.3.1.1<3,7>]dec-2-yl)-4-methoxy-1,2,5-thiadiazoles]	5.9		No sedation	0	>5
CCOc1nsnc1C1C2CC3CC1CN(C3)C2 (stereo not shown) [Cmpd 23, 3-(5-azatricyclo[3.3.1.1<3,7>]dec-2-yl)-4-ethoxy-1,2,5-thiadiazoles]	0.46		No sedation	0.5	1.5
C(CC1CC1)Oc1nsnc1C1C2CC3CC1CN(C3)C2 (stereo not shown) [Cmpd 25, 3-(5-azatricyclo[3.3.1.1<3,7>]dec-2-yl)-4-(cyclopropylethoxy)-1,2,5-thiadiazoles]			Slight	1.5	4.5
CCC(C)Oc1nsnc1C1C2CC3CC1CN(C3)C2 (stereo not shown) [Cmpd 27, 3-(5-azatricyclo[3.3.1.1<3,7>]dec-2-yl)-4-(1-methyl-propoxy)-1,2,5-thiadiazoles]	1.55		No sedation	0	>5
CCCSc1nsnc1C1C2CC3CC1CN(C3)C2 (stereo not shown) [Cmpd 29, 3-(5-Azatricyclo[3.3.1.1<3,7>]dec-2-yl)-4-propylthio-1,2,5-thiadiazoles]			Very slight	0.5	<1
CCSc1nsnc1C1C2CC3CC1CN(C3)C2 (stereo not shown) [Cmpd 30, 3-(5-Azatricyclo[3.3.1.1<3,7>]dec-2-yl)-4-ethylthio-1,2,5-thiadiazole]		0.3	Sedation	1	
CCCCSc1nsnc1C1C2CC3CC1CN(C3)C2 (stereo not shown) [Cmpd 31, 3-(5-Azatricyclo[3.3.1.1<3,7>]dec-2-yl)-4-butylthio-1,2,5-thiadiazole]		0.3	No sedation	0	
C1CC1CSc1nsnc1C1C2CC3CC1CN(C3)C2 (stereo not shown) [Cmpd 32, 3-(5-Azatricyclo[3.3.1.1<3,7>]dec-2-yl)-4-(cyclopropylmethyl)thio-1,2,5-thiadiazole]		< 1	Sedation	<2	
CCOc1nsnc1C1C2CC3CC1CN3C2 (stereo not shown) [Cmpd 34, 4-(3-Azatricyclo[3.3.1.0<3,7>]non-9-yl)-3-ethoxy-1,2,5-thiadiazoles]	4.6				>2
CCCOc1nsnc1C1C2CC3CC1CN3C2 (stereo not shown) [Cmpd 36, 4-(3-Azatricyclo[3.3.1.0<3,7>]non-9-yl)-3-propyloxy-1,2,5-thiadiazoles]	3.2				>5
CC(C)COc1nsnc1C1C2CC3CC1CN3C2 (stereo not shown) [Cmpd 38, 4-(3-Azatricyclo[3.3.1.0<3,7>]non-9-yl)-3-isobutyloxy-1,2,5-thiadiazoles]					>5
